From US9409893B2, “Heteroaryl derivatives and uses thereof” (Jacobus Pharmaceutical Company, Inc., priority 2012, dated 2016) come the findings set out here.

The structures appear in SMILES notation.

The term IC50 denotes the concentration that inhibits the measured activity by half. Broadly, the melting point is the temperature, or range, at which the solid turns liquid.

The test system of one data set is P. falciparum strain D6. Briefly: [3H]-hypoxanthine growth inhibition assay, P. falciparum D6. In kind it is cell-based. As to conditions: Plasmodium falciparum; P. falciparum D6 (sensitive to chloroquine and pyrimethamine), [3H]-hypoxanthine incorporation; read-out: D6 IC50. The gist of the method: (§1)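 Parasites cultured in human O Rh+ RBCs in RPMI-1640-LPLF (low PABA and folic acid) with 10% human plasma, pH 6.9, 37° C, 5% O2/5% CO2/90% N2. Sorbitol-synchronised ring-stage cultures started at 1% parasitaemia; growth measured as [3H]-hypoxanthine incorporation in hypoxanthine-free medium. Compound stocks 1 mM in DMSO.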

A further data set concerns P. falciparum strain W2. Briefly: [3H]-hypoxanthine growth inhibition assay, P. falciparum W2. In kind it is cell-based. As to conditions: Plasmodium falciparum; P. falciparum W2 (resistant to chloroquine and pyrimethamine), [3H]-hypoxanthine incorporation; read-out: W2 IC50. In outline: as §1
Another data set has as its target hERG potassium channel (Homo sapiens, UniProt Q12809). Briefly: Whole cell patch clamp of cloned hERG potassium channels expressed in HEK293 cells. It counts as cell-based. The text has this: For in vitro testing, the functional hERG assay using conventional patch clamp electrophysiology is considered the gold standard for assessment of drug interactions with the hERG potassium channel (Yao et al., Br. J. Pharmacol. 2008, 154, 1446-1456). In this assay, hERG channels are expressed in a human embryonic kidney (HEK293) cell line that lacks endogenous IKr.
The objective of this study was to examine the in vitro effects of test articles on the hERG (human ether-à-go-go-related gene) potassium channel current (a surrogate for IKr, the rapidly activating delayed rectifier cardiac potassium current).
All chemicals used in solution preparation were purchased from Sigma-Aldrich (St. Louis, Mo.) unless otherwise noted and were of ACS reagent grade purity or higher. Stock solutions of the test article and the positive control were prepared in dimethyl sulfoxide (DMSO) and stored frozen. Test article and positive control concentrations were prepared fresh daily by diluting stock solutions into a HEPES-buffered physiological saline (HB-PS) solution (composition in mM): NaCl, 137; KCl, 4.0; CaCl2, 1.8; MgCl2, 1; HEPES, 10; Glucose, 10; pH adjusted to 7.4 with NaOH (prepared weekly and refrigerated until use).
HEK/hERG • Organism: Homo sapiens • Designation: 293 • Tissue: Kidney; Transformed with adenovirus 5 DNA; Transfected with human-ether-a-go-go cDNA • Morphology: Epithelial • Age Stage Embryo • Source Strain: ATCC, Manassas, Va. • Source Substrain ChanTest Corporation, Cleveland, Ohio
HEK293 cells were stably transfected with hERG cDNA. Stable transfectants were selected by coexpression with the G418-resistance gene incorporated into the expression plasmid. Selection pressure was maintained by including G418 in the culture medium. Cells were cultured in Dulbecco's Modified Eagle Medium/Nutrient Mixture F-12 (D-MEM/F-12) supplemented with 10% fetal bovine serum, 100 U/mL penicillin G sodium, 100 μg/mL streptomycin sulfate and 500 μg/mL G418.
All experiments were performed at room temperature. Each cell acted as its own control.
Experiments were performed as outlined in the section entitled Experimental Procedures. Concentrations were selected to evaluate the concentration-response relationship of each test article based on the initial results or the solubility limits in vehicle. Each concentration was tested in at least three cells (n≧3).
Cells were transferred to the recording chamber and superfused with vehicle control solution. Micropipette solution for whole cell patch clamp recordings was composed of (mM): potassium aspartate, 130; MgCl2, 5; EGTA, 5; ATP, 4; HEPES, 10; pH adjusted to 7.2 with KOH. Pipette solution was prepared in batches, aliquoted, stored frozen, and a fresh aliquot was thawed each day. Patch pipettes were made from glass capillary tubing using a P-97 micropipette puller (Sutter Instruments, Novato, Calif.). A commercial patch clamp amplifier was used for whole cell recordings. Before digitization, current records were low-pass filtered at one-fifth of the sampling frequency.
Onset and steady state inhibition of hERG current was measured using a pulse pattern with fixed amplitudes (conditioning prepulse: +20 mV for 2 s; test pulse: −50 mV for 2 s) repeated at 10 s intervals, from a holding potential of −80 mV. Peak tail current was measured during the 2 s step to −50 mV.
Each test article at 10 μM was applied to at least 3 cells (n≧3).
One or more test article concentrations were applied sequentially (without washout between test substance concentrations) in ascending order, to each cell (n≧3). A steady state was maintained for at least 30 s before applying test article or positive control. Peak current was measured until a new steady state was achieved.
Steady state was defined by the limiting constant rate of change with time (linear time dependence). The steady state before and after test article application was used to calculate the percentage of current inhibited at each concentration. […]

Sequence of hERG potassium channel (Q12809 whole entry): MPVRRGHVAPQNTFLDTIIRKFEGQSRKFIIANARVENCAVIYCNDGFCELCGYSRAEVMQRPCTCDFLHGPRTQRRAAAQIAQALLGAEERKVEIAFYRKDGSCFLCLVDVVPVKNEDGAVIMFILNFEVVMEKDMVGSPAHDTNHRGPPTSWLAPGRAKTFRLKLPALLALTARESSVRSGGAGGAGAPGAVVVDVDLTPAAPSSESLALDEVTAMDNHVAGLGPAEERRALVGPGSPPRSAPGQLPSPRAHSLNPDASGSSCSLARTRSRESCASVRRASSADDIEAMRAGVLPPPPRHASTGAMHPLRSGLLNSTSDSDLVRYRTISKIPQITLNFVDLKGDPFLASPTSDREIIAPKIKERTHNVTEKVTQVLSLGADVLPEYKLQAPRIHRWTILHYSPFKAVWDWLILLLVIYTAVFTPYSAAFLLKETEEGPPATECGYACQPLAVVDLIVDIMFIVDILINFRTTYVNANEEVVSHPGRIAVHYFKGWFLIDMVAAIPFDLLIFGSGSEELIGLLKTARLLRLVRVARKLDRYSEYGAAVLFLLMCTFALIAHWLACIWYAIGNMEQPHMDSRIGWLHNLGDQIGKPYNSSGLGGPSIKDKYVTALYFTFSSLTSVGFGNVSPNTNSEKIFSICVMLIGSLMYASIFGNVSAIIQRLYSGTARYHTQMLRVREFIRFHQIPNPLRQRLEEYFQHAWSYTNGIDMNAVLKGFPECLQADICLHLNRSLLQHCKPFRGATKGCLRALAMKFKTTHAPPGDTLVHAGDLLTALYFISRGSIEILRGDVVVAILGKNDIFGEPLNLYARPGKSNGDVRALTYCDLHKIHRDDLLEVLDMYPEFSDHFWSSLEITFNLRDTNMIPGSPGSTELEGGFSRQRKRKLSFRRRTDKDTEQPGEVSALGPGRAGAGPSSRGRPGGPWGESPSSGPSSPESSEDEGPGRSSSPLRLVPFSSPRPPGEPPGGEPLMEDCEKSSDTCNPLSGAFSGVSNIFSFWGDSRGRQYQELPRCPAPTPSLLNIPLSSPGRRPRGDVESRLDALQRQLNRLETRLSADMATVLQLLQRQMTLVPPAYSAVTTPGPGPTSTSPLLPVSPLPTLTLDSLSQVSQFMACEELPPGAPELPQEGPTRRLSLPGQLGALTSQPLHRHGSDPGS

On to `CC(C)(C)NCc1cc(C(C)(C)C)cc(-c2ccc(S(C)(=O)=O)nc2)c1O.Cl` [Example 43, 4-(tert-Butyl)-2-((tert-butylamino)methyl)-6-(6-(methylsulfonyl)pyridin-3-yl)phenol hydrochloride], for which the melting point fell in the range of 229 to 232 °C. Further, in the data set with P. falciparum strain D6, the IC50 is 158 nM. Further, the IC50 in the data set on P. falciparum strain W2 worked out at 100 nM.
For the molecule `CC(C)(C)NCc1cc(C(C)(C)C)cc(-c2ccc(Cl)cc2)c1O` [WR-194,965, 4-(tert-butyl)-2-(tert-butylaminomethyl)-6-(4-chlorophenyl)phenol, reference compound], the concentration for half-maximal inhibition (IC50) on hERG potassium channel (HEK293/hERG, patch clamp, read-out: IC50 for the inhibitory effect on hERG potassium current) was determined as 1100 nM. In addition, the “Hill coefficient of hERG inhibition” value on hERG potassium channel (fit of concentration-response data) was determined as 1.4. Moreover, the inhibition at 0.3 µM on hERG potassium channel (human, HEK293 cells stably expressing hERG, pH 7.4, 0.3 μM, HEK293/hERG, room temperature, read-out: Mean percentage of hERG current inhibited) was determined as 12.8%. In addition, the inhibition at 1 µM at hERG potassium channel (human, HEK293 cells stably expressing hERG, pH 7.4, 1 μM, HEK293/hERG, room temperature, read-out: Mean percentage of hERG current inhibited) was 47.5%. In addition, at hERG potassium channel (human, HEK293 cells stably expressing hERG, pH 7.4, 3 μM, HEK293/hERG, room temperature, read-out: Mean percentage of hERG current inhibited), the inhibition at 3 µM turned out to be 80.3%. In addition, at hERG potassium channel (human, HEK293 cells stably expressing hERG, pH 7.4, 10 μM, HEK293/hERG, room temperature, read-out: Mean percentage of hERG current inhibited), the inhibition at 10 µM was 97.2%.
